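Protocol summary: plate cells (96-well), add compound at 5 concentrations, incubate 48 h, interpolate endpoints linearly. GI50 = concentration required for 50% inhibition of growth. TGI marks complete inhibition of growth.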
Key:
Assay in all cases: NCI tumour cell line growth inhibition, 48 h
HT29 colon = tested on: HT29 colon
SK-MEL-2 melanoma = tested on: SK-MEL-2 melanoma
SNB-19 CNS = tested on: SNB-19 CNS
IGROV1 ovarian = tested on: IGROV1 ovarian
MDA-MB-231 breast = tested on: MDA-MB-231 breast
786-0 renal = tested on: 786-0 renal
NCI-H460 lung = tested on: NCI-H460 lung
MALME-3M melanoma = tested on: MALME-3M melanoma
T-47D breast = tested on: T-47D breast
NCI/ADR-RES ovarian = tested on: NCI/ADR-RES ovarian
HL-60(TB) leukemia = tested on: HL-60(TB) leukemia
SK-MEL-28 melanoma = tested on: SK-MEL-28 melanoma
SR leukemia = tested on: SR leukemia
M14 melanoma = tested on: M14 melanoma
DU-145 prostate = tested on: DU-145 prostate
CAKI-1 renal = tested on: CAKI-1 renal
UO-31 renal = tested on: UO-31 renal
BT-549 breast = tested on: BT-549 breast
NCI-H226 lung = tested on: NCI-H226 lung
MOLT-4 leukemia = tested on: MOLT-4 leukemia
HOP-92 NSCLC = tested on: HOP-92 NSCLC
SNB-75 CNS = tested on: SNB-75 CNS
NCI-H23 lung = tested on: NCI-H23 lung
ACHN renal = tested on: ACHN renal
HCT-116 colon = tested on: HCT-116 colon
MDA-MB-435 = tested on: MDA-MB-435
SF-268 CNS = tested on: SF-268 CNS
SK-OV-3 ovarian = tested on: SK-OV-3 ovarian
K-562 leukemia = tested on: K-562 leukemia
U251 CNS = tested on: U251 CNS
A549 NSCLC = tested on: A549 NSCLC
HOP-62 NSCLC = tested on: HOP-62 NSCLC
OVCAR-8 ovarian = tested on: OVCAR-8 ovarian
CCRF-CEM leukemia = tested on: CCRF-CEM leukemia
SF-295 CNS = tested on: SF-295 CNS
OVCAR-4 ovarian = tested on: OVCAR-4 ovarian
SF-539 CNS = tested on: SF-539 CNS
SN12C renal = tested on: SN12C renal
A498 renal = tested on: A498 renal
HCC-2998 colon = tested on: HCC-2998 colon
KM12 colon = tested on: KM12 colon
HS 578T breast = tested on: HS 578T breast
NCI-H522 lung = tested on: NCI-H522 lung
TK-10 renal = tested on: TK-10 renal
UACC-257 melanoma = tested on: UACC-257 melanoma
COLO 205 colon = tested on: COLO 205 colon
SK-MEL-5 melanoma = tested on: SK-MEL-5 melanoma
OVCAR-5 ovarian = tested on: OVCAR-5 ovarian
HCT-15 colon = tested on: HCT-15 colon
SW-620 colon = tested on: SW-620 colon
RPMI-8226 leukemia = tested on: RPMI-8226 leukemia
PC-3 prostate = tested on: PC-3 prostate
EKVX NSCLC = tested on: EKVX NSCLC
RXF 393 renal = tested on: RXF 393 renal
OVCAR-3 ovarian = tested on: OVCAR-3 ovarian
LOX IMVI melanoma = tested on: LOX IMVI melanoma
MCF7 breast = tested on: MCF7 breast
UACC-62 melanoma = tested on: UACC-62 melanoma

Structure (SMILES): CS(=O)(=O)c1cccc(Nc2ncc3cc(-c4ccccc4Cl)ccc3n2)c1
- GI50 (HT29 colon): 1010 nM
- TGI (HT29 colon): 19100 nM
- GI50 (SK-MEL-2 melanoma): 920 nM
- TGI (SK-MEL-2 melanoma): 2610 nM
- GI50 (SNB-19 CNS): 2460 nM
- TGI (SNB-19 CNS): > 33300 nM
- GI50 (IGROV1 ovarian): 1100 nM
- TGI (IGROV1 ovarian): 12400 nM
- GI50 (MDA-MB-231 breast): 1370 nM
- TGI (MDA-MB-231 breast): 12200 nM
- GI50 (786-0 renal): 1380 nM
- TGI (786-0 renal): > 33300 nM
- GI50 (NCI-H460 lung): 1220 nM
- TGI (NCI-H460 lung): 25800 nM
- GI50 (MALME-3M melanoma): 1220 nM
- TGI (MALME-3M melanoma): 9840 nM
- GI50 (T-47D breast): 1100 nM
- TGI (T-47D breast): > 33300 nM
- GI50 (NCI/ADR-RES ovarian): 1240 nM
- TGI (NCI/ADR-RES ovarian): 17700 nM
- GI50 (HL-60(TB) leukemia): 1360 nM
- TGI (HL-60(TB) leukemia): > 33300 nM
- GI50 (SK-MEL-28 melanoma): 1770 nM
- TGI (SK-MEL-28 melanoma): > 33300 nM
- GI50 (SR leukemia): 800 nM
- TGI (SR leukemia): > 33300 nM
- GI50 (M14 melanoma): 1150 nM
- TGI (M14 melanoma): > 33300 nM
- GI50 (DU-145 prostate): 1420 nM
- TGI (DU-145 prostate): > 33300 nM
- GI50 (CAKI-1 renal): 859 nM
- TGI (CAKI-1 renal): 9570 nM
- GI50 (UO-31 renal): 803 nM
- TGI (UO-31 renal): 6410 nM
- GI50 (BT-549 breast): 2110 nM
- TGI (BT-549 breast): 27800 nM
- GI50 (NCI-H226 lung): 2550 nM
- TGI (NCI-H226 lung): 21500 nM
- GI50 (MOLT-4 leukemia): 1420 nM
- TGI (MOLT-4 leukemia): 14600 nM
- GI50 (HOP-92 NSCLC): 1300 nM
- TGI (HOP-92 NSCLC): 7560 nM
- GI50 (SNB-75 CNS): 507 nM
- TGI (SNB-75 CNS): 2300 nM
- GI50 (NCI-H23 lung): 1980 nM
- TGI (NCI-H23 lung): > 33300 nM
- GI50 (ACHN renal): 1010 nM
- TGI (ACHN renal): > 33300 nM
- GI50 (HCT-116 colon): 1010 nM
- TGI (HCT-116 colon): 4510 nM
- GI50 (MDA-MB-435): 657 nM
- TGI (MDA-MB-435): 1900 nM
- GI50 (SF-268 CNS): 1350 nM
- TGI (SF-268 CNS): > 33300 nM
- GI50 (SK-OV-3 ovarian): 883 nM
- TGI (SK-OV-3 ovarian): 2990 nM
- GI50 (K-562 leukemia): 165 nM
- TGI (K-562 leukemia): > 33300 nM
- GI50 (U251 CNS): 1680 nM
- TGI (U251 CNS): > 33300 nM
- GI50 (A549 NSCLC): 1780 nM
- TGI (A549 NSCLC): > 33300 nM
- GI50 (HOP-62 NSCLC): 1300 nM
- TGI (HOP-62 NSCLC): > 33300 nM
- GI50 (OVCAR-8 ovarian): 1440 nM
- TGI (OVCAR-8 ovarian): 32000 nM
- GI50 (CCRF-CEM leukemia): 1470 nM
- TGI (CCRF-CEM leukemia): > 33300 nM
- GI50 (SF-295 CNS): 1600 nM
- TGI (SF-295 CNS): > 33300 nM
- GI50 (OVCAR-4 ovarian): 1510 nM
- TGI (OVCAR-4 ovarian): > 33300 nM
- GI50 (SF-539 CNS): 940 nM
- TGI (SF-539 CNS): 25500 nM
- GI50 (SN12C renal): 1120 nM
- TGI (SN12C renal): > 33300 nM
- GI50 (A498 renal): 1750 nM
- TGI (A498 renal): 12100 nM
- GI50 (HCC-2998 colon): 2800 nM
- TGI (HCC-2998 colon): > 33300 nM
- GI50 (KM12 colon): 1200 nM
- TGI (KM12 colon): > 33300 nM
- GI50 (HS 578T breast): 1230 nM
- TGI (HS 578T breast): 10300 nM
- GI50 (NCI-H522 lung): 773 nM
- TGI (NCI-H522 lung): 2780 nM
- GI50 (TK-10 renal): 1900 nM
- TGI (TK-10 renal): 17300 nM
- GI50 (UACC-257 melanoma): 3240 nM
- TGI (UACC-257 melanoma): 19300 nM
- GI50 (COLO 205 colon): 1190 nM
- TGI (COLO 205 colon): 3130 nM
- GI50 (SK-MEL-5 melanoma): 1080 nM
- TGI (SK-MEL-5 melanoma): 4040 nM
- GI50 (OVCAR-5 ovarian): 1880 nM
- TGI (OVCAR-5 ovarian): > 33300 nM
- GI50 (HCT-15 colon): 821 nM
- TGI (HCT-15 colon): > 33300 nM
- GI50 (SW-620 colon): 1780 nM
- TGI (SW-620 colon): > 33300 nM
- GI50 (RPMI-8226 leukemia): 1470 nM
- TGI (RPMI-8226 leukemia): 21400 nM
- GI50 (PC-3 prostate): 1790 nM
- TGI (PC-3 prostate): > 33300 nM
- GI50 (EKVX NSCLC): 1370 nM
- TGI (EKVX NSCLC): > 33300 nM
- GI50 (RXF 393 renal): 1050 nM
- TGI (RXF 393 renal): 6240 nM
- GI50 (OVCAR-3 ovarian): 1520 nM
- TGI (OVCAR-3 ovarian): > 33300 nM
- GI50 (LOX IMVI melanoma): 1060 nM
- TGI (LOX IMVI melanoma): 4540 nM
- GI50 (MCF7 breast): 1370 nM
- TGI (MCF7 breast): > 33300 nM
- GI50 (UACC-62 melanoma): 1170 nM
- TGI (UACC-62 melanoma): 5740 nM

Source: PubChem BioAssay (NCI)
